Laboratory results taken from patent US20220380334A1, “(-) - CIS TETRAHYDROCANNABINOL ((-) - CIS-THC) FOR USE AS A MEDICAMENT” (GW Research Limited, priority 2019, published 2022).
“Also recorded” adds a separate entry of the source. Marks after values point to notes of the source that are not given here.

How the values were obtained:
[1] = test system: tonic hind limb convulsions; assay: Mouse supramaximal electroshock seizure (MES) model of generalized seizures; assay type: in vivo
Experimental: Mice were administered MES (30 mA, rectangular current: 0.6 ms pulse width, 0.2 s duration, 50 Hz) via corneal electrodes connected to a constant current shock generator (Ugo Basile: type 7801) to reliably produce tonic hind limb convulsions. The number of tonic convulsions was recorded.
Sixteen mice were studied per group. The test was performed blind.
The test substance, (−)-cis-THC, was evaluated at 4 doses (10, 50, 100 and 150 mg/kg), administered i.p. 60 minutes before MES, and compared with a vehicle control group (administered under the same experimental conditions).
Valproate (positive control) was administered at 250 mg/kg i.p. 30 minutes before MES, was used as a reference substance and was compared with a vehicle group (administered i.p. 60 minutes before MES).
Data was analysed by comparing treated groups with the appropriate vehicle control using 2-tailed Fisher's Exact Probability tests (p<0.05 considered significant).

[2] = test system: withdrawal threshold on hot plate at 52° C.; assay: Mouse hotplate test of anti-nociceptive potential; assay type: in vivo; details: for Withdrawal threshold (sec) Mean +/− SEM: hot plate 52° C.
Experimental: Mice underwent a minimum habituation period of 7 days prior to study commencement. Naïve mice were acclimatised to the procedure room in their home cages, with food and water available ad libitum.
Animals were treated with either treatment vehicle, (−)-cis-THC at 1, 15, 50, 100, 125 and 150 mg/kg at 10 ml/kg i.p. or Morphine 10 mg/kg or Morphine vehicle (Saline) at 10 ml/kg i.p.
Animals were placed onto a hot plate set at 52° C. and time to withdrawal threshold (first response of lifting, licking front or hind paws or trying to escape) was taken at 1-hour post treatment, or at 0.5 hour after the positive control.
Animals were culled by a schedule 1 method, immediately after the measurement.
Data were analysed by comparing withdrawal thresholds back to Vehicle treated group

[3] = depending on the assay; cited from earlier work

Question: With `CCCCCc1cc(O)c2c(c1)OC(C)(C)[C@H]1CCC(C)=C[C@@H]21` (relative stereo) [(−)-cis-THC, (−)-cis-delta-9-tetrahydrocannabinol] as the compound, how does the “% change from vehicle in number of tonic clonic seizures after MES” value (shortened to “% change from vehicle in number”) ([1]; 10 mg/kg I.P., pre-treatment time 60 mins) read?
Answer: No effect

Question: And the “% change from vehicle in number” value ([1]; 10 mg/kg I.P., pre-treatment time 60 mins, listed as (-)-cis-THC)?
Answer: 0.0%

Question: What about the “% change from vehicle in number” value ([1]; 50 mg/kg I.P., pre-treatment time 60 mins) of the same compound?
Answer: 25%

Question: What about the “% change from vehicle in number” value ([1]; 50 mg/kg I.P., pre-treatment time 60 mins, listed as (-)-cis-THC) of the same compound?
Answer: 25.0%

Question: What about the “% change from vehicle in number” value ([1]; 100 mg/kg I.P., pre-treatment time 60 mins) of the same compound?
Answer: 6.3%

Question: What about the “% change from vehicle in number” value ([1]; 150 mg/kg I.P., pre-treatment time 60 mins) of the same compound?
Answer: 25%

Question: What about the “% change from vehicle in number” value ([1]; 150 mg/kg I.P., pre-treatment time 60 mins, listed as (-)-cis-THC) of the same compound?
Answer: 25.0%

Question: And the “anti-convulsant effect in the MES model (overall conclusion)” value ([1]; 10, 50, 100 and 150 mg/kg i.p.)?
Answer: did not produce a significant anti-convulsant effect

Question: And the “Withdrawal threshold (sec) Mean +/− SEM” value ([2]; 1 mg/kg I.P., 1-hour post treatment)?
Answer: 10.99 ± 0.92 s

Question: And the “Withdrawal threshold (sec) Mean +/− SEM” value ([2]; 15 mg/kg I.P., 1-hour post treatment)?
Answer: 10.22 ± 0.94 s

Question: And the “Withdrawal threshold (sec) Mean +/− SEM” value ([2]; 50 mg/kg I.P., 1-hour post treatment)?
Answer: 12.68 ± 1.11 s

Question: And the “Withdrawal threshold (sec) Mean +/− SEM” value ([2]; 100 mg/kg I.P., 1-hour post treatment)?
Answer: 14.23 ± 1.37 s

Question: And the “Withdrawal threshold (sec) Mean +/− SEM” value ([2]; 125 mg/kg I.P., 1-hour post treatment)?
Answer: 15.28 ± 1.19 s

Question: And the “anti-nociceptive effect in the hotplate test (overall, in words)” value ([2]; 1 to 150 mg/kg i.p.)?
Answer: dose-related increase in withdrawal threshold; also recorded: significant anti-nociceptive effect

Question: With `CCCCCc1cc(O)c2c(c1)OC(C)(C)[C@@H]1CCC(C)=C[C@@H]21` [(−)-trans-THC, (−)-trans-delta-9-tetrahydrocannabinol] as the compound, how does the “potency relative to the (+)-trans-THC isomer” value [3] read?
Answer: 6-100 times

Question: Which “Withdrawal threshold (sec) Mean +/− SEM” value ([2]; 10 mg/kg I.P., 0.5 hour after treatment) does the source give for `CN1CC[C@]23c4c5ccc(O)c4O[C@H]2[C@@H](O)C=C[C@H]3[C@H]1C5` [Morphine, reference compound] here?
Answer: 23.17 +/− 1.54 *** sec

Question: What about the “Withdrawal threshold (sec) Mean +/− SEM” value ([2]; 10 mg/kg I.P., 0.5 hour after treatment, listed as morphine) of the same compound?
Answer: significant increase

Question: Which “% change from vehicle in number” value ([1]; 250 mg/kg I.P., pre-treatment time 30 mins) does the source give for `CCCC(CCC)C(=O)O` [Valproate, reference compound] here?
Answer: 93.8%
